# Measured values as given in ChEMBL document CHEMBL3734667 (Bioorg Med Chem, 2015).
# Legend:
# [1] = Cytotoxicity against MDBK cells assessed as cell viability after 48 to 96 hrs by MTT assay; assay type: cell-based, Bos taurus; details: cattle
# [2] = test system: Vaccinia virus; assay: Antiviral activity against Vaccinia virus; assay type: functional, organism-based; details: Orthopoxvirus vaccinia
# [3] = Selectivity index, ratio of CC50 for african green monkey Vero76 cells to EC50 for human RSV; parameters: species or system human respiratory syncytial virus, Vero 76
# [4] = test system: Coxsackievirus B5; assay: Antiviral activity against human CVB5 infected in african green monkey Vero76 cells assessed as inhibition of virus-induced cytopathogenicity after 3 days by plaque reduction assay; assay type: functional, organism-based; details: Enterovirus B, Vero 76, 72 h
# [5] = Selectivity index, ratio of CC50 for MDBK cells to EC50 for BVDV; parameters: species or system Bovine viral diarrhea virus 1
# [6] = test system: Human orthopneumovirus; assay: Antiviral activity against human RSV infected in african green monkey Vero76 cells assessed as inhibition of virus-induced cytopathogenicity after 5 days by plaque reduction assay; assay type: functional, organism-based; details: human respiratory syncytial virus, Vero 76, 120 h
# [7] = Cytotoxicity against human MT4 cells assessed as cell viability after 96 hrs by MTT assay; assay type: cell-based
# [8] = test system: Human immunodeficiency virus 1; assay: Antiviral activity against HIV-1 infected in MT4 cells assessed as inhibition of virus-induced cytopathogenicity after 4 days by MTT assay; assay type: functional, organism-based; details: Human immunodeficiency virus 1, MT4, 96 h
# [9] = test system: Bovine viral diarrhea virus 1; assay: Antiviral activity against BVDV infected in MDBK cells assessed as inhibition of virus-induced cytopathogenicity after 3 to 4 days by MTT assay; assay type: functional, organism-based; details: Bovine viral diarrhea virus isolates and strains
# [10] = Cytotoxicity against BHK cells assessed as cell viability after 48 to 96 hrs by MTT assay; assay type: cell-based, Mesocricetus auratus; details: hamster
# [11] = test system: Yellow fever virus; assay: Antiviral activity against YFV infected in BHK-21 cells assessed as inhibition of virus-induced cytopathogenicity after 3 to 4 days by MTT assay; assay type: functional, organism-based
# [12] = test system: Vesicular stomatitis virus; assay: Antiviral activity against VSV; assay type: functional, organism-based
# [13] = Cytotoxicity against african green monkey Vero 76 cells assessed as cell viability after 48 to 96 hrs by crystal violet staining method; assay type: cell-based; details: chlorocebus sabaeus
# [14] = test system: Mammalian orthoreovirus 1; assay: Antiviral activity against Reo-1 virus infected in BHK-21 cells assessed as inhibition of virus-induced cytopathogenicity after 3 to 4 days by MTT assay; assay type: functional, cell-based; details: Mammalian orthoreovirus 1, BHK-21
# [15] = test system: Poliovirus 1; assay: Antiviral activity against Human poliovirus 1 Sabin infected in african green monkey Vero76 cells assessed as inhibition of virus-induced cytopathogenicity by plaque reduction assay; assay type: functional, organism-based; details: Enterovirus C, Vero 76
# [16] = test system: Human alphaherpesvirus 1; assay: Antiviral activity against HSV1; assay type: functional, organism-based
# [17] = Selectivity index, ratio of CC50 for african green monkey Vero76 cells to EC50 for human CVB5; parameters: species or system Coxsackievirus B5, Vero 76
Structure (SMILES),CC50 [1] [µM],EC50 [2] [µM],Ratio CC50/EC50 [3],EC50 [4] [µM],Ratio CC50/EC50 [5],EC50 [6] [µM],CC50 at 96 h [7] [µM],EC50 [8] [µM],EC50 [9] [µM],CC50 [10] [µM],EC50 [11] [µM],EC50 [12] [µM],CC50 [13] [µM],EC50 [14] [µM],EC50 [15] [µM],EC50 [16] [µM],Ratio CC50/EC50 [17]
CC(CC(=O)O)n1nc2c(Cl)c(Cl)c(Cl)c(Cl)c2n1 (centres undefined),70,> 100,3.12,25,1.43,8,> 100,> 100,49,33,> 100,> 100,25,,,,
Clc1c(Cl)c(Cl)c2nn(C3CCCO3)nc2c1Cl (centres undefined),≥ 100,,,,8.33,,> 100,> 100,12,30,> 100,> 100,12,> 100,> 100,> 100,
[O-][n+]1c2cc(C(F)(F)F)ccc2nn1-c1ccc(O)cc1,72,> 100,>2.5,75,,40,> 100,> 100,> 100,> 100,> 100,> 100,> 100,> 100,> 100,,>1.33
Clc1ccc(Cn2nc3cc(Cl)c(Cl)cc3n2)cc1,> 100,> 100,,> 100,,> 100,> 100,> 100,> 100,> 100,> 100,> 100,> 100,> 100,> 100,> 100,
FC(F)(F)c1ccc2nn(Cc3ccccc3)nc2c1,> 100,> 100,,> 100,,> 100,> 100,> 100,> 100,> 100,> 100,> 100,> 100,> 100,> 100,> 100,
FC(F)(F)c1ccc2nn(Cc3ccc(Cl)cc3)nc2c1,> 100,> 100,,> 100,,> 100,> 100,> 100,> 100,> 100,> 100,> 100,> 100,> 100,> 100,> 100,
COc1ccccc1N1CCN(CCCOc2ccc(-n3nc4ccc(C(F)(F)F)cc4n3)cc2)CC1,> 100,> 100,,53,,> 100,100,> 100,> 100,> 100,> 100,> 100,100,> 100,> 100,,1.89
COc1c(C)c2c(c(O)c1C/C=C(\C)CCC(=O)O)C(=O)OC2 [MYCOPHENOLIC ACID],,2,33.3,> 100,,0.6,,,> 100,> 100,> 100,,,> 100,> 100,> 100,
Cc1ccc(C)c(OCCCC(C)(C)C(=O)O)c1 [GEMFIBROZIL],> 100,,,> 100,>1.11,> 100,> 100,,90,> 100,> 100,,> 100,,> 100,,
COc1ccc(Cn2nc3ccc(C(F)(F)F)cc3n2)cc1,> 100,> 100,,> 100,,> 100,> 100,> 100,> 100,> 100,> 100,> 100,> 100,> 100,> 100,> 100,
NC(=O)c1ncn([C@@H]2O[C@H](CO)[C@@H](O)[C@H]2O)n1 [RIBAVIRIN],> 100,> 100,>14.3,> 100,,7,,,,> 100,> 100,> 100,> 100,> 100,> 100,> 100,
CN(C)c1cccc(C(=O)OCCCn2nc3ccccc3n2)c1,> 100,> 100,,73,,> 100,> 100,> 100,> 100,> 100,> 100,> 100,> 100,,,,>1.37
COc1ccc2nn(-c3ccc(OC(C)(C)C(=O)O)cc3)nc2c1,≥ 100,> 100,4.5,> 100,,20,> 100,> 100,> 100,> 100,> 100,> 100,90,,> 100,,
COc1ccc(Cn2nc3cc(Cl)c(Cl)cc3n2)cc1,> 100,> 100,,> 100,,> 100,> 100,> 100,> 100,> 100,> 100,> 100,> 100,> 100,> 100,> 100,
Clc1cc2nn(Cc3ccccc3)nc2cc1Cl,> 100,> 100,,> 100,,> 100,> 100,> 100,> 100,> 100,> 100,> 100,> 100,> 100,> 100,> 100,
CC(C)(CCCOc1ccc(-n2nc3ccc(Cl)cc3n2)cc1)C(=O)O,32,> 100,7.5,0.7,,2,51,> 100,> 100,16,> 100,> 100,15,,> 100,,31.43
Cc1cc2nn(C3CCCO3)nc2cc1C (centres undefined),> 100,,,,,,> 100,> 100,> 100,> 100,> 100,> 100,> 100,> 100,> 100,> 100,
Clc1cc2nn(C3CCCCO3)nc2cc1Cl (centres undefined),> 100,,,,,,> 100,> 100,> 100,> 100,> 100,> 100,≥ 100,> 100,60,> 100,
COc1ccc(Cn2nnc3cc(Cl)c(Cl)cc32)cc1,> 100,> 100,,> 100,,> 100,> 100,> 100,> 100,> 100,> 100,> 100,> 100,> 100,> 100,> 100,
Cc1ccc2nn(-c3ccc(OCC(C)(C)C(=O)O)cc3)nc2c1,69,> 100,4,5,,15,≥ 100,> 100,> 100,≥ 100,> 100,> 100,60,,> 100,,12
Cc1ccc2nn(-c3ccc(OC(C)(C)C(=O)O)cc3)nc2c1,> 100,> 100,4.32,> 100,>1.11,22,> 100,> 100,90,> 100,> 100,> 100,95,,> 100,,
CC(C)(Oc1ccc(-n2nc3ccccc3n2)cc1)C(=O)O,> 100,> 100,1.25,> 100,,80,> 100,> 100,> 100,> 100,> 100,> 100,≥ 100,,> 100,,
CC(C)(Oc1ccc(-n2nc3ccc(Cl)cc3n2)cc1)C(=O)O,≥ 100,> 100,2.8,> 100,,25,> 100,> 100,> 100,75,> 100,> 100,70,,> 100,,
